The target of test [1] is BRD4 (BD1) (Homo sapiens, UniProt O60885). As to the kind of experiment: Homogeneous time-resolved fluorescence binding assay, BRD4. The conditions noted are these: for IC50: IC50 BRD4 (BD1), mean ± SD from three separate experiments; for fold less potent than compound 2 against BRD4: ratio of IC50 values.
The test system of test [2] is HH signaling pathway (GLI-responsive firefly luciferase reporter). As to the kind of experiment: Dual luciferase reporter assay. In kind it is cell-based. The conditions noted are these: read-out: IC50 GLI-luc reporter. (Reporter assays use an easily measured gene product as a stand-in for the process of interest.)

Consider `Cn1cc(-c2cc(N3CCCC(CO)S3(=O)=O)ccc2Oc2ccc(F)cc2F)c2cc[nH]c2c1=O` (stereo not shown) [Compound 13], for which the IC50 amounted to 0.6 ± 0.07 nM in test [1] and 20.5 ± 7.74 nM in test [2].

For `Cn1cc(-c2cc(N3CCCN(CCN4CCOCC4)S3(=O)=O)ccc2Oc2ccc(F)cc2F)c2cc[nH]c2c1=O` [Compound 19], the values for the half-maximal inhibitory concentration (IC50) in test [1] and in test [2] were 1.47 ± 0.03 nM and 17.7 ± 11 nM, respectively.

Take `CCS(=O)(=O)Nc1ccc(Oc2ccc(F)cc2F)c(-c2cc(Nc3ccccn3)c(=O)n(C)c2)c1` [Compound 10]: the IC50 in test [1] and in test [2] was more than 100 nM each time.

As for `Cc1nnn(C)c1-c1cnc2c3ccc(C(C)(C)O)cc3n([C@H](c3ccccc3)C3CCOCC3)c2c1` [BMS-986158 (1), reference compound], the values for the IC50 in test [1] and in test [2] were less than 0.16 nM and 0.15 ± 0.05 nM, respectively.

For the compound `Cc1sc2c(c1C)C(c1ccc(Cl)cc1)=N[C@@H](CC(=O)Nc1ccc(O)cc1)c1nnc(C)n1-2` [OTX-015, reference compound], the IC50 in test [2] was 0.64 ± 0.02 nM.

Turning to `CCS(=O)(=O)Nc1ccc(Oc2ccc(F)cc2F)c(-c2cc(NS(=O)(=O)CC)c(=O)n(C)c2)c1` [Compound 8], the half-maximal inhibitory concentration (IC50) in test [1] was 42.8 ± 9.6 nM; in test [2], more than 100 nM.

As for `COc1nnc2ccc(N3CCC(c4ccc(OCCN5CCN(C)C(=O)[C@H]5C)cc4)CC3)nn12` [AZD5153 (4), (3R)-4-[2-[4-[1-(3-methoxy-[1,2,4]triazolo[4,3-b]pyridazin-6-yl)-4-piperidyl]phenoxy]ethyl]-1,3-dimethyl-piperazin-2-one, reference compound], the IC50 is 18.2 ± 2.7 nM in test [1] and 32.1 ± 7.71 nM in test [2].

`CCOC(=O)Nc1cc(-c2cc(NS(=O)(=O)CC)ccc2Oc2ccc(F)cc2F)cn(C)c1=O` [Compound 5]: in test [1], the 50% inhibitory concentration (IC50) worked out at 27.6 ± 5.7 nM and the “fold less potent than compound 2 against BRD4” value is recorded as 8 fold. The IC50 in test [2] turned out to be 157 ± 1.3 nM.

As to `Cn1cc(-c2cc(N3CCCN(CCN4CCC(CO)C4)S3(=O)=O)ccc2Oc2ccc(F)cc2F)c2cc[nH]c2c1=O` (stereo not shown) [Compound 22], the half-maximal inhibitory concentration (IC50) in test [2] was more than 100 nM.

Consider `Cn1cc(-c2cc(N3CCCCS3(=O)=O)ccc2Oc2ccc(F)cc2F)c2cc(C(N)=O)[nH]c2c1=O` [Compound 29], for which the values for the IC50 in test [1] and in test [2] were 0.09 ± 0.08 nM and 2.46 ± 0.3 nM, respectively.

As to `CCCC(=O)Nc1cc(-c2cc(NS(=O)(=O)CC)ccc2Oc2ccc(F)cc2F)cn(C)c1=O` [Compound 7], the IC50 in test [1] and in test [2] was more than 100 nM each time.

On to `CCS(=O)(=O)Nc1ccc(Oc2ccc(F)cc2F)c(-c2cc(Nc3ncc[nH]3)c(=O)n(C)c2)c1` [Compound 9], for which the values for the half-maximal inhibitory concentration (IC50) in test [1] and in test [2] were 47.6 ± 2.9 nM and more than 100 nM, respectively.

As to `CN(CCO)CCN1CCCN(c2ccc(Oc3ccc(F)cc3F)c(-c3cn(C)c(=O)c4[nH]ccc34)c2)S1(=O)=O` [Compound 20], the IC50 stood at 1.01 ± 0.34 nM in test [1] and 42.8 ± 30.7 nM in test [2].

`Cc1noc(C)c1-c1cnc2c(-c3ccc(C(=O)O)cc3)cn([C@@H](C)c3ccccn3)c2c1` [PLX51107, reference compound]: the IC50 in test [2] was 5.5 ± 1.3 nM.

Take `CN1C(=O)C(C)(C)Oc2c(-c3cn(C)c(=O)c4[nH]ccc34)cc(S(C)(=O)=O)cc21` [INCB-057643, reference compound]: the results for the IC50 in test [1] and in test [2] were 11.6 ± 1.8 nM and 40.6 ± 4.9 nM, respectively.

`Cn1cc(-c2cc(N3CCCN(CC4(CO)COC4)S3(=O)=O)ccc2Oc2ccc(F)cc2F)c2cc[nH]c2c1=O` [Compound 23]: the IC50 in test [1] came out at 0.58 ± 0.1 nM; in test [2] it was 45.8 ± 19.2 nM.

For `Cn1cc(-c2cc(N3CCCS3(=O)=O)ccc2Oc2ccc(F)cc2F)c2cc(C(=O)O)[nH]c2c1=O` [Compound 26], in test [1], the IC50 amounted to 21 ± 11 nM and the “fold less potent than compound 2 against BRD4” value was more than 4 fold. The concentration for half-maximal inhibition (IC50) in test [2] is more than 100 nM.

Regarding `Cn1cc(-c2cc(N3CCCS3(=O)=O)ccc2Oc2ccc3occc3c2)c2cc[nH]c2c1=O` [Compound 33], the IC50 came to 2.85 ± 0.5 nM in test [1] and 1.03 ± 0.28 nM in test [2].

`CCS(=O)(=O)Nc1ccc(Oc2ccc(F)cc2F)c(-c2cc(NC(=O)OCCOC)c(=O)n(C)c2)c1` [Compound 6]: the half-maximal inhibitory concentration (IC50) in test [1] and in test [2] was more than 100 nM in each case.

As a reminder, the IC50 is the concentration that gives 50% inhibition.

The values above are taken from PMC7893122 (Acta Pharmaceutica Sinica. B, 2020).
